Source: US5939428A, “Alkyl N-[3-(acridin-9-yl)amino-5-hydroxymethyl] phenylcarbamates” (National Health Research Institutes, priority 1998, dated 1999)
Values belong to the compound of their own block, whether it stands above or below them.

Tests used:
[1] = mouse, in vivo; cited from earlier work
[2] = longer than m-AMSA; cited from earlier work
[3] = test system: leukemia and several solid tumors; conditions: against growth of leukemia and several solid tumors, in vitro and in vivo; cited from earlier work
[4] = test system: murine leukemia and solid tumors (a mammary adenocarcinoma, B-16 melanoma and Lewis lung carcinoma); conditions: cited from earlier work
HL-60 cells = test: in vitro cytotoxicity against growth of human leukemic HL-60 cells; format: cell-based; conditions: read-out: IC50 for cell growth inhibition, HL-60
Experimental: (§1) The in vitro cytotoxicity of the N-[3-(acridin-9-yl)amino-5-hydroxymethyl]phenylcarbamate derivatives of the invention against growth of human leukemic HL-60 cells and 833K tumor cells, and the chemotherapeutic effects of ethyl N-[3-(acridin-9-yl)amino-5-hydroxymethyl]phenylcarbamate on Sarcoma 180 and Lewis lung carcinoma tumor bearing B6 D2 F1 mice were evaluated. The compound 3-(acridin-9-yl)amino-5-hydroxymethylaniline (AHMA) was also evaluated for comparison.
(§2) The in vitro cytotoxicity against growth of human
(§3) leukemic HL-60 cells and 833K tumor cells.

Lewis lung carcinoma = test: chemotherapeutic effect on Lewis lung carcinoma tumor bearing B6 D2 F1 mice; format: in vivo; conditions: for Average Weight Change, Day 7 / Average Weight Change, Day 10: mouse, in vivo, ip
Experimental: as §1
The chemotherapeutic effects on Sarcoma 180 and
Lewis lung carcinoma tumor bearing B6 D2 F1 mice.^a […]
carcinoma (4 × […] cells) inoculated s.c. on day (-2).
Treatment started on day 1, i.p., QD × 5. Control had 4 mice and
each dose had 3 mice. Tumor sizes were evaluated on day 7 and day 10.

Sarcoma 180 = test: chemotherapeutic effect on Sarcoma 180 tumor bearing B6 D2 F1 mice; format: in vivo; conditions: for Average Tumor Volume (T/C), Day 7 / Average Weight Change, Day 7: QD × 5, day 7
Source text: Sarcoma 180 (3 × 10^6 cells) innoculated subcutaneously
(s.c.) on day 0. Treatment started on day 1, peritoneal injection (i.p.),

833K tumor cells = test: in vitro cytotoxicity against growth of 833K tumor cells; format: cell-based; conditions: Homo sapiens, read-out: IC50 for cell growth inhibition, 833K
Experimental: as §1, §2, §3

[5] = 37° C.; cited from earlier work
[6] = mouse and rat; GSH conjugates; cited from earlier work
[7] = Lewis lung carcinoma, 3.0 mg/kg i.p., QD × 5
[8] = Lewis lung carcinoma, 6.0 mg/kg i.p., QD × 5

SMILES: CNC(=O)c1cccc2c(Nc3ccc(NS(C)(=O)=O)cc3OC)c3cccc(C)c3nc12 [CI-921]
- metabolites detected in addition to the 5'- and 6'-GSH conjugates [1]: two other metabolites, namely C9-GSH and the 4-hydroxymethyl derivatives of CI-921, were detected

SMILES: Nc1cc(CO)cc(Nc2c3ccccc3nc3ccccc23)c1 [compound 1, 3-(acridin-9-yl)amino-5-hydroxymethylaniline]
- plasma half-life [2]: 1.5 h
- antitumor activity [3]: potent antitumor activity against growth of leukemia and several solid tumors both in vitro and in vivo with long half-life
- toxicity toward the host compared with m-AMSA and VP-16 ([4]; mouse, in vivo): less toxic toward the host
- antitumor efficacy compared with m-AMSA and VP-16 ([4]; murine leukemia and solid tumors): greater efficacy against murine leukemia and solid tumors (a mammary adenocarcinoma, B-16 melanoma and Lewis lung carcinoma) than m-AMSA and VP-16
- IC50 (HL-60 cells): 25 nM

- Average Weight Change, Day 7 (Lewis lung carcinoma; 3 mg/kg): -2.3 gm
- Average Weight Change, Day 10 (Lewis lung carcinoma; 3 mg/kg): -1.3 gm
- Average Weight Change, Day 7 (Lewis lung carcinoma; 6 mg/kg): -3 gm
- Average Weight Change, Day 10 (Lewis lung carcinoma; 6 mg/kg): -2.6 gm
- Average Weight Change, Day 7 (Lewis lung carcinoma; 8 mg/kg): -3.6 gm
- Average Weight Change, Day 7 (Sarcoma 180; 3.0 mg/kg i.p.): -2.0 gm
- Average Weight Change, Day 10 (Sarcoma 180; 3.0 mg/kg i.p., QD × 5, day 10): -0.7 gm
- Average Weight Change, Day 7 (Sarcoma 180; 5.0 mg/kg i.p.): -2.6 gm
- Average Weight Change, Day 10 (Sarcoma 180; 5.0 mg/kg i.p., QD × 5, day 10): +1.0 gm
- Average Weight Change, Day 7 (Sarcoma 180; 7.0 mg/kg i.p.): -3.4 gm
- Average Weight Change, Day 10 (Sarcoma 180; 7.0 mg/kg i.p., QD × 5, day 10): -0.1 gm
SMILES: CCOC(=O)Nc1cc(CO)cc(Nc2c3ccccc3nc3ccccc23)c1 [compound 2, ethyl N-[3-(acridin-9-yl)amino-5-hydroxymethyl]phenylcarbamate]
- Average Tumor Volume (T/C), Day 7 (Lewis lung carcinoma; [7]): 0.8
- Average Tumor Volume (T/C), Day 10 (Lewis lung carcinoma; [7]): 0.63
- Average Tumor Volume (T/C), Day 7 (Lewis lung carcinoma; [8]): 0.44
- Average Tumor Volume (T/C), Day 10 (Lewis lung carcinoma; [8]): 0.37
- Mortality (footnote c) (Lewis lung carcinoma; Lewis lung carcinoma, 8.0 mg/kg i.p., QD × 5, 3 mice): One mouse died on day 8 and two mice died on day 9
- Average Tumor Volume (T/C), Day 7 (Lewis lung carcinoma; Lewis lung carcinoma, 8.0 mg/kg i.p., QD × 5): 0.21
- Average Tumor Volume (T/C), Day 7 (Sarcoma 180; 3.0 mg/kg i.p.): 1.24
- Average Tumor Volume (T/C), Day 10 (Sarcoma 180; 3.0 mg/kg i.p., QD × 5, day 10): 1.21
- Average Tumor Volume (T/C), Day 7 (Sarcoma 180; 5.0 mg/kg i.p.): 0.06
- Average Tumor Volume (T/C), Day 10 (Sarcoma 180; 5.0 mg/kg i.p., QD × 5, day 10): 0.63
- Average Tumor Volume (T/C), Day 7 (Sarcoma 180; 7.0 mg/kg i.p.): 0.22
- Average Tumor Volume (T/C), Day 10 (Sarcoma 180; 7.0 mg/kg i.p., QD × 5, day 10): < 0.01
- Tumor detectability (footnote b) (Sarcoma 180; 7.0 mg/kg i.p., QD × 5, day 10): Tumor not detectable
- IC50 (833K tumor cells): 20 nM
- IC50 (HL-60 cells): 16 nM

SMILES: CC(C)COC(=O)Nc1cc(CO)cc(Nc2c3ccccc3nc3ccccc23)c1 [compound 3, i-butyl N-[3-(acridin-9-yl)amino-5-hydroxymethyl]phenylcarbamate]
- IC50 (833K tumor cells): 21 nM
- IC50 (HL-60 cells): 18 nM

SMILES: CNC(=O)c1cccc2c(Nc3cc(N)cc(CO)c3)c3cccc(C)c3nc12 [compound 4, 3-(5-methyl-4-methylamino-carbonylacridin-9-yl)amino-5-hydroxymethylaniline]
- IC50 (833K tumor cells): 244 nM
- IC50 (HL-60 cells): 144 nM

SMILES: CCOC(=O)Nc1cc(CO)cc(Nc2c3cccc(C)c3nc3c(C(=O)NC)cccc23)c1 [compound 5, ethyl N-[3-(4-methylaminocarbonyl-5-methylacridin-9-yl)amino-5-hydroxymethyl]phenylcarbamate]
- IC50 (833K tumor cells): 34 nM
- IC50 (HL-60 cells): 83 nM

SMILES: COc1cc(NS(C)(=O)=O)ccc1Nc1c2ccccc2nc2ccccc12 [m-AMSA, 4'-(9-acridinylamino)methanesulfon-m-anisidine]
- dose excreted as the glutathione conjugate in the bile [1]: More than 50%
- half-life in the presence of fresh mouse blood [5]: ca. 30 min
- major biliary metabolites [6]: the major biliary metabolites of this agent were the 5'- and 6'-glutathione (GSH) conjugates, with no C9-GSH conjugate being found
